What was measured:
[1] = biological target: T1, 5-HT1A receptor (Homo sapiens, UniProt P08908); experiment: 5-HT1A receptor radioligand competition assay (SPA); format: binding; conditions: for Ki: competition with 0.5 nM 8-hydroxy-DPAT [3H], test compound 3 nM to 1 mM, read-out: 5-HT1A, Ki
T1 construct: purchased Perkin Elmer 6110501400UA
T1 sequence (P08908 1-422): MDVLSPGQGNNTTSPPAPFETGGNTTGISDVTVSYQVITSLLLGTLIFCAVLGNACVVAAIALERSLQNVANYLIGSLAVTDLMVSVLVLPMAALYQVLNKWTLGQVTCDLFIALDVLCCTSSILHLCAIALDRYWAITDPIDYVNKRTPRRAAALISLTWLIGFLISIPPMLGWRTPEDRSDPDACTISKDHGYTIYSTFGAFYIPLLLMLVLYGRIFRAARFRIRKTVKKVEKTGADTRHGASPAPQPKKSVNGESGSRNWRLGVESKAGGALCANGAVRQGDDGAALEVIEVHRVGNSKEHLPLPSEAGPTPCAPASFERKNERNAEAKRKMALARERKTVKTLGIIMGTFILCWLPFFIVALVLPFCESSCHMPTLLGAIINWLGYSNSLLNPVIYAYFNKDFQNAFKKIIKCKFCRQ

[2] = biological target: T2, human serotonin transporter (SERT) (Homo sapiens, UniProt P31645); experiment: biochemical; format: binding
T2 construct: purchased PerkinElmer RBHSTM400UA

[3] = biological target: T3, 5-HT1B (h) (Homo sapiens, UniProt P28222); experiment: Competition assay to measure binding affinity at 5-HT1B receptor; conditions: test ligand 10 μM; [3H]GR125743 1 nM
T3 construct: host or cells: Chem-1 (RBL) cells

[4] = biological target: T4, 5-HT1D (r) (Rattus norvegicus, UniProt P28565); experiment: Competition assay to measure binding affinity at 5-HT1D receptor; conditions: test ligand 10 μM; [3H]serotonin 1 nM
T4 construct: host or cells: CHO cells

[5] = biological target: T5, 5-HT2B (h) (Homo sapiens, UniProt P41595); experiment: Competition assay to measure binding affinity at 5-HT2B receptor; conditions: test ligand 10 μM; [3H]mesulergine 2 nM
T5 construct: host or cells: CHO cells

[6] = biological target: T6, 5-HT2C (h) (Homo sapiens, UniProt P28335); experiment: Competition assay to measure binding affinity at 5-HT2C receptor; conditions: test ligand 10 μM; [125I](±)DOI 0.1 nM
T6 construct: host or cells: HEK-293 cells
T6 sequence (P28335 33-458): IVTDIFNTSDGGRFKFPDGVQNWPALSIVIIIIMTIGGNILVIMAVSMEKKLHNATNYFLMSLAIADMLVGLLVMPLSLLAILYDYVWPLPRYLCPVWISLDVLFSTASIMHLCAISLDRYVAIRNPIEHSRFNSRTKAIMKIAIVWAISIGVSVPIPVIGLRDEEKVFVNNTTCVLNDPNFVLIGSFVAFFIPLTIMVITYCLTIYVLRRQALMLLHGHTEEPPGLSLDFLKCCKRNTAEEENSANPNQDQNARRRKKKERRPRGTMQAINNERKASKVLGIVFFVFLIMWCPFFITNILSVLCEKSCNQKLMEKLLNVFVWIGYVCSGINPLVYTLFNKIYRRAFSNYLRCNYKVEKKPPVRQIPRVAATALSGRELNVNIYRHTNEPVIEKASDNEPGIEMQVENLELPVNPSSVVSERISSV

[7] = biological target: T7, 5-HT7 (h) (Homo sapiens, UniProt P34969); experiment: Competition assay to measure binding affinity at 5-HT7 receptor; conditions: test ligand 10 μM; [3H]LSD 4 nM
T7 construct: host or cells: HEK-293 cells

[8] = biological target: T8, alpha2A (h) (Homo sapiens, UniProt P08913); experiment: Competition assay to measure binding affinity at alpha2A receptor; conditions: test ligand 10 μM, [3H]RX 821002 1 nM; for inhibition at 10 µM: read-out: α-2A, percent of control-specific binding
T8 construct: host or cells: CHO cells
T8 sequence (P08913 1-465): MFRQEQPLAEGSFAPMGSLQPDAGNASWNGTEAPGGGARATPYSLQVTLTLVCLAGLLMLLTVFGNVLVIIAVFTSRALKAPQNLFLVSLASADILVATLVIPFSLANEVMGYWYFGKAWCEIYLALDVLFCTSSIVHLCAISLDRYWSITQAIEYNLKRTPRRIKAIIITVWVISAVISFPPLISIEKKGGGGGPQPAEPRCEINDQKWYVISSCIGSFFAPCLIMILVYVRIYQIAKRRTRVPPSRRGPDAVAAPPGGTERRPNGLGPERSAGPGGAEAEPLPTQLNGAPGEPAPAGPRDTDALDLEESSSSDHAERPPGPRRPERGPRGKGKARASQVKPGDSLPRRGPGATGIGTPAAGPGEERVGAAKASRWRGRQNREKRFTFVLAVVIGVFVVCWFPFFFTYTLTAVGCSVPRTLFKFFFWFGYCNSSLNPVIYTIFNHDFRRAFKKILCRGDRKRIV

[9] = biological target: T9, D2 (h) (Homo sapiens, UniProt P14416); experiment: Competition assay to measure binding affinity at D2L receptor; conditions: test ligand 10 μM; [3H]methylspiperone 0.3 nM
T9 construct: host or cells: HEK-293 cells

[10] = biological target: T10, D3 (h) (Homo sapiens, UniProt P35462); experiment: Competition assay to measure binding affinity at D3 receptor; conditions: test ligand 10 μM; [3H]methylspiperone […]
T10 construct: host or cells: CHO cells

[11] = biological target: T11, DAT (h) (Homo sapiens, UniProt Q01959); experiment: Competition assay to measure binding affinity at dopamine transporter (DAT); conditions: test ligand 10 μM; [3H]BTCP 4 nM
T11 construct: host or cells: CHO cells

[12] = biological target: T12, MT1 (ML1A) (h) (Homo sapiens, UniProt P48039); experiment: Competition assay to measure binding affinity at MT1 receptor; conditions: test ligand 10 μM; [125I]2-iodomelatonin 0.01 nM
T12 construct: host or cells: CHO cells

[13] = biological target: T13, NET (h) (Homo sapiens, UniProt P23975); experiment: Competition assay to measure binding affinity at norepinephrine transporter (NET); conditions: test ligand 10 μM; [3H]nisoxetine 1 nM
T13 construct: host or cells: CHO cells
T13 sequence (P23975 whole entry): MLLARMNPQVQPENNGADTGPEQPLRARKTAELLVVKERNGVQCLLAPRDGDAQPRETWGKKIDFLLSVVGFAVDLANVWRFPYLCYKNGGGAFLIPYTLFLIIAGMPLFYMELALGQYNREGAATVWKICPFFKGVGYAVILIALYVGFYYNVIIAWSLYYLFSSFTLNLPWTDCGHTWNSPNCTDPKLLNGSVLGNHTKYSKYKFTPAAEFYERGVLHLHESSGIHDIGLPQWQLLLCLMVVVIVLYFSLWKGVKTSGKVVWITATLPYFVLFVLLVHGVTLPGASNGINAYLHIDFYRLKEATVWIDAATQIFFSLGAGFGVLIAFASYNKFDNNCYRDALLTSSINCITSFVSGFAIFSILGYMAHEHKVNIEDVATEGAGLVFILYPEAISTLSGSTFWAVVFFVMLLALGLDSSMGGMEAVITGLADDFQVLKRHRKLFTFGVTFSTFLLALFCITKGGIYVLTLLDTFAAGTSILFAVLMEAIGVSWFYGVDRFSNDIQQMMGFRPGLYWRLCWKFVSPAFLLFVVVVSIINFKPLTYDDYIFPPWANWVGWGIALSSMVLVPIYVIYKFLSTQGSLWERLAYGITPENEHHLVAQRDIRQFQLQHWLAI

T11 sequence (Q01959 whole entry): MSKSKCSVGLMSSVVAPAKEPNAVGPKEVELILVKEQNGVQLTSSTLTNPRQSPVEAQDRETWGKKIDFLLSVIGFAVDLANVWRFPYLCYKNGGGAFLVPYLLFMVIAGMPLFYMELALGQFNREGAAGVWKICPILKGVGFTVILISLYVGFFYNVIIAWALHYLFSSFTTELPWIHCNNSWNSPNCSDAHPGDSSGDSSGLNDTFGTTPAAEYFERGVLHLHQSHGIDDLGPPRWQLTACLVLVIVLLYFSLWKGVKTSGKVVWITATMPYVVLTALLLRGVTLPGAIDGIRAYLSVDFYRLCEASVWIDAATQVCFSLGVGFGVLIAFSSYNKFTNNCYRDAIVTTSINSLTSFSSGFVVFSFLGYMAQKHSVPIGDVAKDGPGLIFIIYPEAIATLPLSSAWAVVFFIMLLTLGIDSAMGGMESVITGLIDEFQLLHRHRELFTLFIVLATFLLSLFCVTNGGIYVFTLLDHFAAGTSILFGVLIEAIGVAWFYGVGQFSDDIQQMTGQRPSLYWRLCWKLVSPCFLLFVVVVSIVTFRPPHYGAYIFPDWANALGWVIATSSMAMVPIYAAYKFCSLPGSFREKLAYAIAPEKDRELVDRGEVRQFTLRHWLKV
T2 sequence (P31645 whole entry): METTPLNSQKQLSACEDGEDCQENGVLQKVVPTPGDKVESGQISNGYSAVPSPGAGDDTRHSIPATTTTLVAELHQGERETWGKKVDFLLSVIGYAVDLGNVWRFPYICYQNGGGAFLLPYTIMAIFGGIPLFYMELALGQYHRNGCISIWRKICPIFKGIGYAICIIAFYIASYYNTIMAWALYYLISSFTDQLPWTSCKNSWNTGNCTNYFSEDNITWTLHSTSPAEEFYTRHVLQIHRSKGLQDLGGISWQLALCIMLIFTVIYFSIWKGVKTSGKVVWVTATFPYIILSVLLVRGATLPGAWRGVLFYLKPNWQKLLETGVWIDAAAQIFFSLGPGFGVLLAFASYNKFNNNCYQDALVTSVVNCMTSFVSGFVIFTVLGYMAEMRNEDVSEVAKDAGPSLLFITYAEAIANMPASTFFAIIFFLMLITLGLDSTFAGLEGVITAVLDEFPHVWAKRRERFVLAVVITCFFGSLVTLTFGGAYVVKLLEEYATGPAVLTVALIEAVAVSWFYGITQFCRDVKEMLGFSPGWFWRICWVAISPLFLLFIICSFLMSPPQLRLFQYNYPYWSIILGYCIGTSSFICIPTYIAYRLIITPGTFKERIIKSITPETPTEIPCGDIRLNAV
T4 sequence (P28565 whole entry): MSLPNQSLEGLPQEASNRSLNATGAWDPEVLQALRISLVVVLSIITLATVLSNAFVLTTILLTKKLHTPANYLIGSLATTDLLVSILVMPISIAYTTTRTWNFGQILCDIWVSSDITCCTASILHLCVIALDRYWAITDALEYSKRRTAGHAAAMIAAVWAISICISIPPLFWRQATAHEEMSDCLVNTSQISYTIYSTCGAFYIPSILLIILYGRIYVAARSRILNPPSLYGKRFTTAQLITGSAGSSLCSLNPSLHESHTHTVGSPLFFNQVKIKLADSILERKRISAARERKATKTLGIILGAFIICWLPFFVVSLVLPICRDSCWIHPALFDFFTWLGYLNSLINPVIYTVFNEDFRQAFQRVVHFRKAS
T5 sequence (P41595 whole entry): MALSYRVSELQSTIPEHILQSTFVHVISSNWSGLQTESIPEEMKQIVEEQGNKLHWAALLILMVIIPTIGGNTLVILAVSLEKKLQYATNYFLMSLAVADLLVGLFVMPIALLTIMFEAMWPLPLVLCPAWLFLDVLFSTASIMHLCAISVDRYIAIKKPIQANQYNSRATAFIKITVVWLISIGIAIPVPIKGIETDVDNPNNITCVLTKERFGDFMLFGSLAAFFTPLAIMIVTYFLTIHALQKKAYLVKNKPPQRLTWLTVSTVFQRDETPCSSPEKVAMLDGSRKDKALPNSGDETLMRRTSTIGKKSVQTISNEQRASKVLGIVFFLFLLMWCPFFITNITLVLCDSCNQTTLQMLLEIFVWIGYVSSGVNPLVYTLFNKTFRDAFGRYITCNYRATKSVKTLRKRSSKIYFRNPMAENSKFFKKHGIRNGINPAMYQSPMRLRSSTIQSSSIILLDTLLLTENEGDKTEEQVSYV
T12 sequence (P48039 whole entry): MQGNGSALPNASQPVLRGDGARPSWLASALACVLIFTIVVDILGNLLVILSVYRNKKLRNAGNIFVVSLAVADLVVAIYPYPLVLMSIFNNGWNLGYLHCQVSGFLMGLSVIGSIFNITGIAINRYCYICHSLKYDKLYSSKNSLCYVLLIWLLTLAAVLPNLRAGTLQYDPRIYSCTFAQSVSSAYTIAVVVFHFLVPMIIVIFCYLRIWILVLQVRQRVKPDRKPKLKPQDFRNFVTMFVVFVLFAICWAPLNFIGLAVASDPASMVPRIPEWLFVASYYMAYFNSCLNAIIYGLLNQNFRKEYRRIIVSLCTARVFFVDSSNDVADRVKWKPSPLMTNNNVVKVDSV
T9 sequence (P14416 whole entry): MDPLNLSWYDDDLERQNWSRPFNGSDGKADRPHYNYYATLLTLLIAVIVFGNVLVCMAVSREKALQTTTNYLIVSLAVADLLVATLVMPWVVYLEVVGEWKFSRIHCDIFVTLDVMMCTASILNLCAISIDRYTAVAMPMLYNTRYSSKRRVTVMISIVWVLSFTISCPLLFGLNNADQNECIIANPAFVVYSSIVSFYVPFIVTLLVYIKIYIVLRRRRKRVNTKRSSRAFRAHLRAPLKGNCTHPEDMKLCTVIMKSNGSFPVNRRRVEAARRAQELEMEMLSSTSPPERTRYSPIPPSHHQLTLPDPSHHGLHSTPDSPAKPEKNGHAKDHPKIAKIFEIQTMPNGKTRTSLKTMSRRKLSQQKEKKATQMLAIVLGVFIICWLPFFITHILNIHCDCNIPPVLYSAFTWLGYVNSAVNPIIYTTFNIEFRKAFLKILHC
T3 sequence (P28222 whole entry): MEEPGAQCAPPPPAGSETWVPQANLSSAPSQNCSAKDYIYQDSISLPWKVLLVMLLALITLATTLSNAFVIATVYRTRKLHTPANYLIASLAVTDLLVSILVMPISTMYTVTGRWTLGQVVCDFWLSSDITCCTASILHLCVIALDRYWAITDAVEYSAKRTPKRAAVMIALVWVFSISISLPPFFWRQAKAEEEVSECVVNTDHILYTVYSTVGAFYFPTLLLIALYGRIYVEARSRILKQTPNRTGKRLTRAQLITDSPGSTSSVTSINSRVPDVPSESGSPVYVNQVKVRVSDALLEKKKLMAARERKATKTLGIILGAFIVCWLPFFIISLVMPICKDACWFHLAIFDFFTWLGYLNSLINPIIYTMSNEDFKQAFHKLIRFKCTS
T7 sequence (P34969 whole entry): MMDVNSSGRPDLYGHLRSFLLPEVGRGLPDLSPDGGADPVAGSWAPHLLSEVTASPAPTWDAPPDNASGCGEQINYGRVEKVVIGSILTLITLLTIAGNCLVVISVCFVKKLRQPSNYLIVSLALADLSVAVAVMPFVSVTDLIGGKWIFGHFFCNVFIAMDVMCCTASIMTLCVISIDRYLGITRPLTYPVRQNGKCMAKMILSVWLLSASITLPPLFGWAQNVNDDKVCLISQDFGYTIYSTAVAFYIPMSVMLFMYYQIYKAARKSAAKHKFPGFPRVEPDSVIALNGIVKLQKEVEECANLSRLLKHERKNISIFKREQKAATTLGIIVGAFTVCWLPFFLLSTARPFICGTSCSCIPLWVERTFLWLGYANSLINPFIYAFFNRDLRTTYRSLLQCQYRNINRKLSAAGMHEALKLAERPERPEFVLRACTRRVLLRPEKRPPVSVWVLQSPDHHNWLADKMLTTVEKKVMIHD
T10 sequence (P35462 whole entry): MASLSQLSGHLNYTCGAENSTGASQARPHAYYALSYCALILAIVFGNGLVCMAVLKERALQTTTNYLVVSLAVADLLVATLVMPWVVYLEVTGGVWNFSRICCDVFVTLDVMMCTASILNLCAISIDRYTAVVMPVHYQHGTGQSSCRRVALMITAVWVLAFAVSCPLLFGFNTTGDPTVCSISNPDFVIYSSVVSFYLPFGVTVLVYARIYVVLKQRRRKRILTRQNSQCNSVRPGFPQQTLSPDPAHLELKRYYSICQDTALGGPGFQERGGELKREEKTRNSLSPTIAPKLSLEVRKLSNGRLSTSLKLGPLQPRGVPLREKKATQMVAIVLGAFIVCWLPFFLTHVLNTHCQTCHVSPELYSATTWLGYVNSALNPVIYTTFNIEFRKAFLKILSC

Row | Compound | Ki [1] | Ki [2] | HT1B, percent of control-specific binding [3] | HT1D, percent of control-specific binding [4] | HT2B, percent of control-specific binding [5] | HT2C, percent of control-specific binding [6] | HT7, percent of control-specific binding [7] | inhibition at 10 µM [8] | D2, percent of control-specific binding [9] | D3, percent of control-specific binding [10] | DAT, percent of control-specific binding [11] | MT1, percent of control-specific binding [12] | NET, percent of control-specific binding [13] | α-2A, percent of control-specific binding [8] | 5-HT1A receptor binding, binding curve in words ([1]; FIGS. 35C-35L) | SERT binding, binding curve in words [2]
1 | CON(C)C(C)Cc1ccc2c(c1)OCO2 (stereo not shown) [A(XVIII)] | > 1000 µM | 98 µM | 6% | 0% | 9% | 3% | 6% | 0% | 0% | 5% | 5% | 6% | 1% | – | – | –
2 | COc1cc2c(cc1CC(=O)NCCO)OCO2 [A(XXII)] | > 1000 µM | 52.3 µM | 0% | 5% | 14% | 15% | 20% | 0% | 0% | 3% | 0% | 18% | 1% | – | – | –
3 | COc1ccc2cccc(CCNC(C)=O)c2c1 [Agomelatine, reference compound] | – | – | −9% | 10% | 93% | 92% | – | 2% | −4% | 6% | 1% | 99% | 1% | – | – | –
4 | CC(NC(C)(C)C)C(=O)c1cccc(Cl)c1 (stereo not shown) [Bupropion, reference compound] | – | – | 9% | −1% | −2% | 1% | – | 2% | −5% | 3% | 92% | 83% | – | – | – | –
5 | COc1cc(CC(C)N)c(OC)cc1Br (stereo not shown) [DOB, reference compound] | – | – | 20% | 84% | 97% | – | 65% | – | 9% | 25% | 3% | −3% | 6% | 66% | – | –
6 | CNCC[C@H](Oc1cccc2ccccc12)c1cccs1 [Duloxetine, reference compound] | – | – | 52% | 63% | 95% | 92% | – | – | 24% | 66% | – | 23% | – | – | – | –
7 | CN(C)CCCN1c2ccccc2CCc2ccccc21 [Imipramine, reference compound] | – | – | 36% | 39% | 94% | 98% | – | 57% | 82% | 92% | 23% | 29% | 99% | – | – | –
8 | COc1ccc2[nH]cc(CCNC(C)=O)c2c1 [Melatonin, reference compound] | – | – | 0% | 13% | 52% | 19% | – | -7% | −20% | 2% | 4% | 98% | −2% | – | – | –
9 | O=c1n(CCCN2CCN(c3cccc(Cl)c3)CC2)nc2ccccn12 [Trazodone, reference compound] | – | – | 61% | – | 97% | 93% | – | 91% | 61% | 89% | 24% | 14% | −1% | – | – | –
10 | N#Cc1ccc2[nH]cc(CCCCN3CCN(c4ccc5oc(C(N)=O)cc5c4)CC3)c2c1 [Vilazodone, reference compound] | – | – | 67% | 97% | 96% | 92% | – | 65% | 97% | 99% | 98% | 84% | 99% | – | – | –
11 | N[C@@H](Cc1c[nH]c2ccccc12)C(=O)O [tryptophan, reference compound] | > 1000 µM | > 1000 µM | −22% | 3% | 0% | 25% | – | -4% | −19% | −23% | 1% | −2% | 1% | – | no binding | no binding to SERT
12 | Cc1ccc(Sc2ccccc2N2CCNCC2)c(C)c1 [vortioxetine, reference compound] | – | 0.00203 µM | 101% | 100% | 97% | 99% | – | 62% | 51% | 88% | 90% | 26% | 99% | – | – | very tight interaction

From patent US12428408B2, “Fused heterocyclic mescaline derivatives” (Enveric Biosciences Canada Inc., priority 2022, dated 2025)
